From ChEMBL document CHEMBL5214967, “Natural Product-Inspired Targeted Protein Degraders: Advances and Perspectives” (J Med Chem, 2022)

Assays:
HT-29 = assay: Cytotoxicity against human HT-29 cells incubated for 72 hrs by CCK-8 assay; assay type: functional, cell-based; details: HT-29, 72 h
SK-MEL-5 = assay: In vivo antitumor activity against human SK-MEL-5 cells xenografted in BALB/c nude mouse administered intraperitoneally every 2 days for 17 days; assay type: functional, organism-based
Protein cereblon/Basigin = Protein cereblon/Basigin (Homo sapiens, UniProt P35613+Q96SW2); assay: PROTAC activity at CRBN/CD147 (unknown origin) assessed as degradation of CD147; assay type: protein assay
Protein cereblon/Basigin, sequence (P35613 whole entry): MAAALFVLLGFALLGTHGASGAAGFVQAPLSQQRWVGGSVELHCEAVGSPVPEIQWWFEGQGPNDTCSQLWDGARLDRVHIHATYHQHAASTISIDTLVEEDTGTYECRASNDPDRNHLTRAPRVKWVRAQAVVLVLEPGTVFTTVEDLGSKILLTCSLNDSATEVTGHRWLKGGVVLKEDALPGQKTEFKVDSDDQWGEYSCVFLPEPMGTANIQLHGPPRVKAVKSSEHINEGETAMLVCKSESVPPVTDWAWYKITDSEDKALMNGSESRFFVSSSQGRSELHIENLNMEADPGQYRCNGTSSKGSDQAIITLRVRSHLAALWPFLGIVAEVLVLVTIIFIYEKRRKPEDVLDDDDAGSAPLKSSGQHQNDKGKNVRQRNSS
Protein cereblon/Basigin, sequence (Q96SW2 whole entry): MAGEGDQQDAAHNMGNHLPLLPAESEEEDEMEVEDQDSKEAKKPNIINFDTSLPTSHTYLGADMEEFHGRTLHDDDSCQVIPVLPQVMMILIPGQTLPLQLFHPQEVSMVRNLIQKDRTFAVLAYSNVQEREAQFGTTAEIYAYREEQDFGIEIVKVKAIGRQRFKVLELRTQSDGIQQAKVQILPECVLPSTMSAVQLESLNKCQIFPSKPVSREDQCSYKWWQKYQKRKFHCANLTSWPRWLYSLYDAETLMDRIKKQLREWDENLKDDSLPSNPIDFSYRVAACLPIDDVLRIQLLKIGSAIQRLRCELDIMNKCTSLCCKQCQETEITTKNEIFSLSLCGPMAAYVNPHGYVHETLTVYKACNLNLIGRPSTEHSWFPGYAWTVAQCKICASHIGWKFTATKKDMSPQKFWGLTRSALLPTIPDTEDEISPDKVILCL

HeLa = assay: Cytotoxicity against human HeLa cells incubated for 72 hrs by CCK-8 assay; assay type: functional, cell-based
HFF-1 = assay: Cytotoxicity against human HFF-1 cells incubated for 72 hrs by CCK-8 assay; assay type: functional, cell-based; details: HFF-1, 72 h
[1] = target: E3 ubiquitin-protein ligase RNF114 (Homo sapiens, UniProt Q9Y508); assay: Inhibition of RNF114 (unknown origin)
E3 ubiquitin-protein ligase RNF114, sequence (Q9Y508 whole entry): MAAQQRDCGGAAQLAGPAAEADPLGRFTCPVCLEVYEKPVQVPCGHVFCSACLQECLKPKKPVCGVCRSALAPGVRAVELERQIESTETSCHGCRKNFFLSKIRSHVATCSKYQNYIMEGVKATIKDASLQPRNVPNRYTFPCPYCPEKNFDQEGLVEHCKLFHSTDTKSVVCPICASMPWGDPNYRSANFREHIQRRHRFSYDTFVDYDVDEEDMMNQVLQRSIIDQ

[2] = target: E3 ubiquitin-protein ligase RNF114/Bromodomain-containing protein 4 (Homo sapiens, UniProt O60885+Q9Y508); assay: PROTAC activity at RNF114/BRD4 (unknown origin) assessed as degradation of BRD4 incubated for 30 mins SDS-PAGE based fluorescence analysis
E3 ubiquitin-protein ligase RNF114/Bromodomain-containing protein 4, sequence (Q9Y508 whole entry, looked up, other chains not shown): as the sequence (Q9Y508 whole entry) above

[3] = Antiviral activity against IAV WSN/33 infected in luciferase tagged HEK293T cells assessed as suppression of de novo viral replication incubated for 24 hr; assay type: functional, cell-based; details: Influenza A virus, WSN/33, HEK-293T
[4] = target: T1, 3-hydroxy-3-methylglutaryl-coenzyme A reductase (Homo sapiens, UniProt P04035); assay: Degradation of HMGCR (unknown origin)
T1 sequence (P04035 whole entry): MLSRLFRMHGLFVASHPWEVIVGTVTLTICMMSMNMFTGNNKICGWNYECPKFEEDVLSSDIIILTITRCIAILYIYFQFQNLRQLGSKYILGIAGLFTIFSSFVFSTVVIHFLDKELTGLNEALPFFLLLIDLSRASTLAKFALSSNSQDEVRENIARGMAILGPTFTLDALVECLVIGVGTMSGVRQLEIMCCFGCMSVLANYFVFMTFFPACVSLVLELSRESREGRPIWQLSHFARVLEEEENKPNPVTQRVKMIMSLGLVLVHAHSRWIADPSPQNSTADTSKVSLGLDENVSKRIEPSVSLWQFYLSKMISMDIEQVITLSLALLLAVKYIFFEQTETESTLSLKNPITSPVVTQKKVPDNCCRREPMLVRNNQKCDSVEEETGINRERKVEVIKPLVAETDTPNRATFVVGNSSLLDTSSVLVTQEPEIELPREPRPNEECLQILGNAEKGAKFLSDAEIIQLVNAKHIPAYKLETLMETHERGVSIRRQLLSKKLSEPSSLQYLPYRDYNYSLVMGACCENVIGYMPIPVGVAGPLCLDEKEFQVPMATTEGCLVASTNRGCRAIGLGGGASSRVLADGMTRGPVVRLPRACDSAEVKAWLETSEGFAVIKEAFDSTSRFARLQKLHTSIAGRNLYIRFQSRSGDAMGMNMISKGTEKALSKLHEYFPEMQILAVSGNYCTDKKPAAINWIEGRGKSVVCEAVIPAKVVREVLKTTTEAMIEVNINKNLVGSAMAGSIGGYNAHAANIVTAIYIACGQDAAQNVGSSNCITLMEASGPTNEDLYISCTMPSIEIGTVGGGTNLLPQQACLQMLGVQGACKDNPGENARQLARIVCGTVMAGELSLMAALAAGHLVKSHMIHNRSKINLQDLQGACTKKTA

[5] = target: T1, 3-hydroxy-3-methylglutaryl-coenzyme A reductase; assay: Inhibition of HMGCR (unknown origin)
[6] = target: T2, von Hippel-Lindau disease tumor suppressor/3-hydroxy-3-methylglutaryl-coenzyme A reductase (Homo sapiens, UniProt P04035+P40337); assay: PROTAC activity at VHL/recombinant HMGCR in human HepG2 cells assessed as degradation of HMGCR measured at 0.1 uM after 16 hrs relative to control; assay type: cell-based
Target sequence in this assay (P40337 whole entry, looked up, one chain of several): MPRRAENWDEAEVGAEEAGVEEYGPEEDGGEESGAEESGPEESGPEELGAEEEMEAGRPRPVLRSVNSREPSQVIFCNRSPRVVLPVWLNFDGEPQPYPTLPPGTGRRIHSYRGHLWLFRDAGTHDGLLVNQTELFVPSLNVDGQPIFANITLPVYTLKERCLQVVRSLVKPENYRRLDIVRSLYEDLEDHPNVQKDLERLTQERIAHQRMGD

[7] = target: T2, von Hippel-Lindau disease tumor suppressor/3-hydroxy-3-methylglutaryl-coenzyme A reductase; assay: PROTAC activity at VHL/recombinant HMGCR in human Insig-depletion HepG2 cells assessed as degradation of HMGCR measured after 16 hrs; assay type: cell-based
Target sequence in this assay (P40337 whole entry, one chain of several): as the sequence (P40337 whole entry, looked up, one chain of several) above

[8] = target: T2, von Hippel-Lindau disease tumor suppressor/3-hydroxy-3-methylglutaryl-coenzyme A reductase; assay: PROTAC activity at VHL/recombinant HMGCR in human Insig-depletion HepG2 cells assessed as degradation of HMGCR measured at 1 uM after 16 hrs relative to control; assay type: cell-based
Target sequence in this assay (P40337 whole entry, looked up, one chain of several): as above

SU-DHL-1 = assay: Cytotoxicity against human SU-DHL-1 cells incubated for 72 hrs by CCK-8 assay; assay type: functional, cell-based; details: SU-DHL-1, 72 h
MCF7 = assay: cells; details: Homo sapiens, MCF7, 72 h
Description: Antiproliferative activity against human MCF7 cells incubated for 72 hrs by MTT assay

[9] = target: Cyclin-dependent kinase 9 (Homo sapiens, UniProt P50750); assay: Inhibition of CDK9 (unknown origin) incubated for 1 hr by fluorescent polarisation based assay
Cyclin-dependent kinase 9, sequence (P50750 whole entry): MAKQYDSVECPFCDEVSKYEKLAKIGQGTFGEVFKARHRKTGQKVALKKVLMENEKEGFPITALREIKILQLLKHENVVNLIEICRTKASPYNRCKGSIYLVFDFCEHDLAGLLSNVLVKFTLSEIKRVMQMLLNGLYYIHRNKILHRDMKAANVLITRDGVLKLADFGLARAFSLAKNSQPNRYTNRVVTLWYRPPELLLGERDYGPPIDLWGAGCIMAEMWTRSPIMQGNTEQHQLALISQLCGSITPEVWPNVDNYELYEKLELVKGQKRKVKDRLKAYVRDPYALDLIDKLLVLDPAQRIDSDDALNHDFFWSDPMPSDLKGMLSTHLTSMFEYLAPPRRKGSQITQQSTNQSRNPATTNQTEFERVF

Cc1ncsc1-c1ccc([C@H](C)NC(=O)[C@@H]2CC(OC(=O)CCCCn3cc(CNC(=O)CC[C@H](NC(=O)c4ccc(NCc5cnc6[nH]c(N)nc(=O)c6n5)cc4)C(=O)O)nn3)CN2C(=O)[C@H](NC(=O)CCCCCCCCCCNCCCONC(=O)c2ccc(F)c(F)c2Nc2ccc(I)cc2F)C(C)(C)C)cc1 (some centres not stated)
IC50 (HT-29): 436 nM

COC(=O)C1=CC[C@]23CC[C@H]([C@@]2(OC(C)=O)CC1)[C@](C)(/C=C/C=C(\C)C(=O)NCCNc1cccc2c1C(=O)N(C1CCC(=O)NC1=O)C2=O)OC3=O (some centres not stated)
IC50 (SK-MEL-5): 6230 nM
IC50 (Protein cereblon/Basigin): 6720 nM

Cc1ncsc1-c1ccc([C@H](C)NC(=O)[C@@H]2CC(OC(=O)CCCCn3cc(CNC(=O)CC[C@H](NC(=O)c4ccc(NCc5cnc6[nH]c(N)nc(=O)c6n5)cc4)C(=O)O)nn3)CN2C(=O)[C@@H](NC(=O)COCCCOCCNC(=O)C[C@@H]2N=C(c3ccc(Cl)cc3)c3c(sc(C)c3C)-n3c(C)nnc32)C(C)(C)C)cc1 (some centres not stated)
IC50 (HeLa): 246 nM
IC50 (HFF-1): > 10000 nM

COC(=O)C[C@H]1[C@]2(C)C3=C(C)C(c4ccoc4-c4ccc(C(=O)NCCCNC(=O)C[C@@H]5N=C(c6ccc(Cl)cc6)c6c(sc(C)c6C)-n6c(C)nnc65)cc4)C[C@H]3C[C@@H]2[C@@H]2OC(=O)[C@]3(C)C=CC(=O)[C@@]1(C)[C@@H]23 (some centres not stated)
IC50 [1]: 240 nM
DC50 [2]: 10 nM

C/C(=C\CC/C(C)=C/C[C@]1(O)C(=O)c2c(O)cc(C)c3c(O)c(C)c(O)c(c23)C1=O)CC/C=C(\CO)CC[C@@H](O)C(C)(C)O
IC50 [3]: 6600 nM

CC(=O)N1N=CC2C[C@@]3(C)C(=CC[C@H]4[C@@H]5CC[C@H]([C@H](C)CCC(=O)N6CCOCC6)[C@@]5(C)CC[C@@H]43)C(C)(C)C21 (some centres not stated)
DC50 [4]: 220 nM

Cc1ncsc1-c1ccc(CNC(=O)[C@@H]2C[C@@H](O)CN2C(=O)[C@H](NC(=O)CCCCCCCCCCNC(=O)OC2C[C@@H](C)C=C3C=C[C@H](C)[C@H](CC[C@@H](O)C[C@@H](O)CC=O)[C@H]32)C(C)(C)C)cc1 (some centres not stated)
IC50 [5]: 250 nM
Emax [6]: 56%
DC50 [7]: 120 nM
Emax [8]: 76%

Cc1cc(Nc2ncc(N)c(Nc3ccccc3S(=O)(=O)C(C)C)n2)c(OC(C)C)cc1C1CCN(C(=O)CCCC(=O)N[C@@H](C(=O)N2C[C@H](OC(=O)CCCCn3cc(CNC(=O)CCC(NC(=O)c4ccc(NCc5cnc6nc(N)[nH]c(=O)c6n5)cc4)C(=O)O)nn3)C[C@H]2C(=O)N[C@@H](C)c2ccc(-c3scnc3C)cc2)C(C)(C)C)CC1 (some centres not stated)
IC50 (SU-DHL-1): 200 nM

COc1c(O)cc(O)c2c(=O)cc(-c3ccccc3)oc12 [WOGONIN]
IC50 (MCF7): 30 nM

O=C1CCC(N2C(=O)c3cccc(NC(=O)CCCCCCCn4cc(COc5c(O)cc(O)c6c(=O)cc(-c7ccccc7)oc56)nn4)c3C2=O)C(=O)N1 (configuration not stated)
IC50 [9]: 523 nM
IC50 (MCF7): 17 nM
